From publication PMC8495455, “Discovery of a transdermally deliverable pentapeptide for activating AdipoR1 to promote hair growth” (EMBO Molecular Medicine, 2021)

Columns and labels:
[1] = tested on: AMPK phosphorylation through AdipoR1 in ORS cells; assay: Western blot p-AMPK in AdipoR1 siRNA-transfected ORS cells; format: cell-based, human
From the text: Following the confirmation of the molecular interaction between AdipoR1 and P5, we evaluated the activation of the intracellular signaling pathway by P5. We investigated whether APN treatment on ORS and DP cells could activate AMPK or ERK signaling pathways, which are previously known to be downstream effectors of AdipoR1 (Mao et al, [2006]; Deepa & Dong, [2009]; Shibata et al, [2012]). […] Next, for determination of whether both P5 and APN mediates the phosphorylation of AMPK through AdipoR1 in ORS and DP cells, the cells were transfected with AdipoR1 siRNA (Appendix Fig S1). […] Collectively, P5 activates AMPK signaling pathway through AdipoR1 in ORS and DP cells in vitro.
All transfections were performed using Lipofectamine 2000 following the manufacturer’s instructions (#11668019; Thermo Fisher). Human DP and ORS cells were cultured without antibiotics until reaching 50% confluency. AdipoR1 or scrambled siRNA (Bioneer) was used. The culture medium was changed 6 h after transfection, and the cells were incubated for another 24 h before subsequent analyses.
(§1) Human ORS and DP cells or skin tissue were lysed (RIPA lysis buffer; #20‐188; Merck Millipore). […] Antibody‐antigen complexes detected by enhanced chemiluminescent substrate (Thermo Fisher) were captured and quantified by Amersham imager 680 systems (GE Healthcare).

VEGF protein = assay: Growth factor protein quantitation in DP cell medium, VEGF; format: cell-based, human; settings: for protein_VEGF: DP cell medium
From the text: Next, we investigated the downstream effects of P5 on hair growth factor genes and proteins in DP cells. […] We tested whether P5 can also increase the mRNA levels and proteins of hair growth factors in DP cells: IGF‐1, VEGF, HGF, platelet‐derived growth factor alpha (PDGFA), and fibroblast growth factor (FGF) 7, which are known to induce or maintain the anagen phase of the hair cycle (Jindo et al, [1994]; Philpott et al, [1994]; Yano et al, [2001]; Jang, [2005]; Tomita et al, [2006]; Iino et al, [2007]).
Human DP cells were grown on a 100‐mm cell culture dish to 100% confluency. After washed by PBS three times, the cells were cultured with serum‐free DMEM and treated with P5. After 48 h, the medium was collected and filtered by a […]. The filtrate was then concentrated using a centrifugal concentrator (Vivaspin 6, 10‐kDa molecular weight cutoff, centrifuged 2,600 g at 4°C for 13 min, Sartorius Stedim Biotech). The signals of each protein in the concentrated media were detected and quantified, based on the enzyme‐linked immunosorbent assay (Human Cytokine Antibody Array C2000, RayBiotech).

[2] = tested on: p-AMPK in human buttock skin; assay: Topical application of P5 on human skin in vivo, p-AMPK (IF, Western blot); settings: topical 0.075, 0.75, 1.5, or 7.5 mM on buttock, occluded, 24 h; IF and Western blot
From the text: Next, we checked whether topically applied P5 can be delivered into human skin using ex vivo skin tissue culture model (Fig EV4A) (Haslam et al, [2018]). After topical application of vehicle or P5 on the ex vivo skin tissue, the dermal lysate of each tissue was examined by the qualitative mass spectrometry (MS). […] To trace the origin of P5, we used isotope‐marked P5 (P5*), in which carbon (^12C) atoms of Gly were substituted with isotope carbon atoms (^13C) increasing the molecular weight by 2 compared to that of original P5 (Fig EV4B). […] Collectively, P5 can be transdermally delivered into human skin.
as §1, with “Millipore). The obtained protein was then separated by 8% SDS–PAGE and transferred to a polyvinylidene fluoride membrane (Amersham). The protein transferred membranes were incubated overnight with the specific antibodies.” for “Millipore).”
Paraffin‐embedded mouse cutaneous back tissue was sectioned (4 μm thickness) and stained with hematoxylin and eosin. […] IF intensity was observed and recorded with a Nikon Eclipse Ni‐E fluorescence microscope (Nikon). […]

GLYYF [P5, GST-fused (GST-P5) in pulldown assays]
p-AMPK intensity after AdipoR1 siRNA transfection, ORS cells [1]: intensity was reduced
protein_VEGF (VEGF protein; P5 5μM, relative to Control = 1, replicate 1): 1.476
protein_VEGF (VEGF protein; P5 5μM, relative to Control = 1, replicate 2): 1.303
protein_VEGF (VEGF protein; P5 5μM, relative to Control = 1, replicate 3): 1.526
protein_VEGF (VEGF protein; P5 25μM, relative to Control = 1, replicate 1): 1.967
protein_VEGF (VEGF protein; P5 25μM, relative to Control = 1, replicate 2): 2.185
protein_VEGF (VEGF protein; P5 25μM, relative to Control = 1, replicate 3): 1.674
VEGF protein expression level (VEGF protein; P5-treated DP cells, 48 h medium, n = 3): elevated
Phosphorylation of AMPK in human skin in vivo [2]: induced the phosphorylation of AMPK in dermis as well as epidermis
